Where “and” joins values, the source holds several entries; their conditions need not be identical. Identical values can stand only once.
Test system: GEMS receptors with CBPvene (Bcl2–LD3 and Bcl2high variants), STAT3-driven SEAP in HEK293T cells
Test: GEMS SEAP reporter assay, CBPvene (Bcl2high, LD3-v and Bcl2-v variants) with venetoclax
Assay type: cell-based
[1] = CBPVene-v4, Venetoclax 10000 nM
[2] = CBPVene-v4-Bcl2v2, Venetoclax 1 nM
[3] = CBPVene-v4-Bcl2v2, Venetoclax 3.16 nM
[4] = CBPVene-v4-Bcl2v2, Venetoclax 10 nM
[5] = CBPVene-v4-Bcl2v2, Venetoclax 31.6 nM
[6] = CBPVene-v4-Bcl2v2, Venetoclax 100 nM
[7] = CBPVene-v4-Bcl2v2, Venetoclax 316 nM
[8] = CBPVene-v4-Bcl2v2, Venetoclax 1000 nM
[9] = CBPVene-v4-Bcl2v2, Venetoclax 3160 nM
[10] = CBPVene-v4-Bcl2v2, Venetoclax 10000 nM
[11] = CBPVene-v4-LD3v1, Venetoclax 1 nM
[12] = CBPVene-v4-LD3v1, Venetoclax 3.16 nM

CC1(C)CCC(CN2CCN(c3ccc(C(=O)NS(=O)(=O)c4ccc(NCC5CCOCC5)c([N+](=O)[O-])c4)c(Oc4cnc5[nH]ccc5c4)c3)CC2)=C(c2ccc(Cl)cc2)C1 [Venetoclax]
Raw data of Independent repeat of CBPVene-v4 vs CBPVene-v4-LD3v1 (CBPVene-v4, Venetoclax 0.01 nM): 35.2999 and 34.8178 and 35.7656
Normalized data Figure 5c (CBPVene-v4, Venetoclax 1 nM): 4.2459 and 4.713 and 4.374
Normalized data Figure 5f (CBPVene-v4, Venetoclax 1 nM): 3.9625 and 4.391 and 3.175
Raw data Figure 5c (CBPVene-v4, Venetoclax 1 nM): 40.3634 and 39.0365 and 35.7348
Raw data Figure 5f (CBPVene-v4, Venetoclax 1 nM): 25.8055 and 26.2397 and 18.4029
Raw data of Independent repeat of CBPVene-v4 vs CBPVene-v4-LD3v1 (CBPVene-v4, Venetoclax 1 nM): 38.7674 and 35.097 and 34.871
Normalized data Figure 5c (CBPVene-v4, Venetoclax 3.16 nM): 3.941 and 4.809 and 4.361
Normalized data Figure 5f (CBPVene-v4, Venetoclax 3.16 nM): 3.622 and 4.227 and 3.164
Raw data Figure 5c (CBPVene-v4, Venetoclax 3.16 nM): 37.466 and 39.8351 and 35.629
Raw data Figure 5f (CBPVene-v4, Venetoclax 3.16 nM): 23.589 and 25.2624 and 18.3382
Raw data of Independent repeat of CBPVene-v4 vs CBPVene-v4-LD3v1 (CBPVene-v4, Venetoclax 3.16 nM): 37.9892 and 34.5814 and 35.8384
Normalized data Figure 5c (CBPVene-v4, Venetoclax 10 nM): 8.251 and 9.2534 and 8.61
Normalized data Figure 5f (CBPVene-v4, Venetoclax 10 nM): 5.138 and 5.367 and 4.508
Raw data Figure 5c (CBPVene-v4, Venetoclax 10 nM): 78.4344 and 76.6512 and 70.3479
Raw data Figure 5f (CBPVene-v4, Venetoclax 10 nM): 33.4586 and 32.0727 and 26.1315
Raw data of Independent repeat of CBPVene-v4 vs CBPVene-v4-LD3v1 (CBPVene-v4, Venetoclax 10 nM): 40.747 and 40.7067 and 37.4113
Normalized data Figure 5c (CBPVene-v4, Venetoclax 31.6 nM): 23.4087 and 23.5513 and 23.3621
Normalized data Figure 5f (CBPVene-v4, Venetoclax 31.6 nM): 15.4727 and 18.6639 and 9.968
Raw data Figure 5c (CBPVene-v4, Venetoclax 31.6 nM): 222.533 and 195.089 and 190.881
Raw data Figure 5f (CBPVene-v4, Venetoclax 31.6 nM): 100.765 and 111.541 and 57.7785
Raw data of Independent repeat of CBPVene-v4 vs CBPVene-v4-LD3v1 (CBPVene-v4, Venetoclax 31.6 nM): 75.7769 and 63.5945 and 72.9306
Normalized data Figure 5c (CBPVene-v4, Venetoclax 100 nM): 64.2766 and 73.1224 and 63.32
Normalized data Figure 5f (CBPVene-v4, Venetoclax 100 nM): 42.576 and 45.1446 and 47.2654
Raw data Figure 5c (CBPVene-v4, Venetoclax 100 nM): 611.042 and 605.715 and 517.36
Raw data Figure 5f (CBPVene-v4, Venetoclax 100 nM): 277.273 and 269.798 and 273.956
Raw data of Independent repeat of CBPVene-v4 vs CBPVene-v4-LD3v1 (CBPVene-v4, Venetoclax 100 nM): 129.31 and 117.373 and 126.839
Normalized data Figure 5c (CBPVene-v4, Venetoclax 316 nM): 100
Normalized data Figure 5f (CBPVene-v4, Venetoclax 316 nM): 68.7371 and 83.2998 and 76.2167
Raw data Figure 5c (CBPVene-v4, Venetoclax 316 nM): 950.644 and 828.357 and 817.055
Raw data Figure 5f (CBPVene-v4, Venetoclax 316 nM): 447.645 and 497.825 and 441.762
Raw data of Independent repeat of CBPVene-v4 vs CBPVene-v4-LD3v1 (CBPVene-v4, Venetoclax 316 nM): 169.324 and 158.179 and 180.661
Normalized data Figure 5c (CBPVene-v4, Venetoclax 1000 nM): 99.3535 and 99.2484 and 89.7215
Normalized data Figure 5f (CBPVene-v4, Venetoclax 1000 nM): 100
Raw data Figure 5c (CBPVene-v4, Venetoclax 1000 nM): 944.498 and 822.131 and 733.074
Raw data Figure 5f (CBPVene-v4, Venetoclax 1000 nM): 651.243 and 597.631 and 579.613
Raw data of Independent repeat of CBPVene-v4 vs CBPVene-v4-LD3v1 (CBPVene-v4, Venetoclax 1000 nM): 146.952 and 139.539 and 151.905
Normalized data Figure 5c (CBPVene-v4, Venetoclax 3160 nM): 79.357 and 89.4953 and 82.0208
Normalized data Figure 5f (CBPVene-v4, Venetoclax 3160 nM): 65.0047 and 75.3611 and 76.07
Raw data Figure 5c (CBPVene-v4, Venetoclax 3160 nM): 754.403 and 741.34 and 670.156
Raw data Figure 5f (CBPVene-v4, Venetoclax 3160 nM): 423.338 and 450.382 and 440.912
Raw data of Independent repeat of CBPVene-v4 vs CBPVene-v4-LD3v1 (CBPVene-v4, Venetoclax 3160 nM): 80.4284 and 77.0562 and 76.9119
Normalized data Figure 5c [1]: 37.7692 and 41.8946 and 33.9505
Normalized data Figure 5f [1]: 42.6019 and 46.7992 and 47.9312
Raw data Figure 5c [1]: 359.051 and 347.036 and 277.394
Raw data Figure 5f [1]: 277.442 and 279.687 and 277.816
Raw data of Independent repeat of CBPVene-v4 vs CBPVene-v4-LD3v1 [1]: 30.3195 and 25.7432 and 26.899
Normalized data Figure 5f [2]: 10.7266 and 9.876 and 10.4991
Raw data Figure 5f [2]: 31.1918 and 36.3952 and 31.7379
Normalized data Figure 5f [3]: 10.8133 and 9.981 and 9.46
Raw data Figure 5f [3]: 31.4437 and 36.7806 and 28.5959
Normalized data Figure 5f [4]: 12.5098 and 10.2311 and 12.3238
Raw data Figure 5f [4]: 36.377 and 37.7021 and 37.2539
Normalized data Figure 5f [5]: 23.9871 and 21.8452 and 18.9874
Raw data Figure 5f [5]: 69.7518 and 80.5008 and 57.3972
Normalized data Figure 5f [6]: 72.8611 and 61.7154 and 72.9933
Raw data Figure 5f [6]: 211.871 and 227.425 and 220.652
Normalized data Figure 5f [7]: 100
Raw data Figure 5f [7]: 290.788 and 368.506 and 302.291
Normalized data Figure 5f [8]: 80.3655 and 74.9934 and 84.5393
Raw data Figure 5f [8]: 233.694 and 276.355 and 255.555
Normalized data Figure 5f [9]: 44.2102 and 40.566 and 46.2986
Raw data Figure 5f [9]: 128.558 and 149.488 and 139.957
Normalized data Figure 5f [10]: 14.2742 and 12.3963 and 14.8986
Raw data Figure 5f [10]: 41.5078 and 45.6809 and 45.0373
Raw data of Independent repeat of CBPVene-v4 vs CBPVene-v4-LD3v1 (CBPVene-v4-LD3v1, Venetoclax 0.01 nM): 13.3313 and 13.792 and 13.1319
Normalized data Figure 5c [11]: 19.7956 and 13.458 and 12.3801
Raw data Figure 5c [11]: 19.1053 and 16.682 and 17.9097
Raw data of Independent repeat of CBPVene-v4 vs CBPVene-v4-LD3v1 [11]: 12.6379 and 12.8648 and 13.2123
Normalized data Figure 5c [12]: 17.4061 and 14.8696 and 11.4945
Raw data Figure 5c [12]: 16.7992 and 18.4317 and 16.6285
Raw data of Independent repeat of CBPVene-v4 vs CBPVene-v4-LD3v1 [12]: 10.9947 and 13.5809 and 10.4154
Normalized data Figure 5c (CBPVene-v4-LD3v1, Venetoclax 10 nM): 20.3471 and 18.6998 and 14.8112

Reference: publication PMC11062894, “Protein-based bandpass filters for controlling cellular signaling with chemical inputs” (Nature Chemical Biology, 2023)
